Measurements published in US10548861B2 (Academia Sinica, priority 2015, dated 2020).
Read-outs that look alike come from different tables or passages of the source.

Columns and labels:
[1] = tested on: Saos-1; experiment: Cytotoxicity: Osteosarcoma; settings: Homo sapiens, read-out: cytotoxic activity (IC50)
[2] = tested on: RH30; experiment: Cytotoxicity: Rhabdomyosarcoma (Alveolar type); settings: Homo sapiens, Rh30
[3] = tested on: PC9 (EGFR); experiment: cells; type: cell-based; settings: Homo sapiens, PC-9
[4] = tested on: SCLC H526 xenograft; experiment: SCLC xenograft, tumor size; type: in vivo, nude mice; settings: 40 mg/kg i.v. Q2Dx4
[5] = tested on: TC-32; experiment: Cytotoxicity: Ewing's sarcoma; settings: Homo sapiens, TC-32, read-out: cytotoxic activity (IC50)
[6] = tested on: HCC827; experiment: cells; type: cell-based; settings: Homo sapiens
[7] = Complete blood count, mice bearing prostate 22Rv/HL2; settings: 24 hrs after last treatment, n = 3
[8] = Plasma protein binding by equilibrium dialysis; type: in vitro ADME; settings: rat plasma, 20 μM, 4 h
Source text: In drug discovery, the information on drug-plasma protein binding is valuable in evaluating and understanding, the absorption, distribution, metabolism and excretion (ADME)-related properties and the pharmacokinetic profile of drug candidates.

[9] = tested on: CCD-33Lu; experiment: 72 hr cytotoxicity: Lung fibroblasts; type: cell-based; settings: Homo sapiens, Fibroblast
[10] = tested on: N-417; experiment: 72 hr cytotoxicity: SCLC variant; type: cell-based; settings: Homo sapiens, N417
[11] = tested on: H2228 (EML4-ALK); experiment: cells; type: cell-based; settings: Homo sapiens, NCI-H2228
[12] = tested on: H1993 (MET amp.); experiment: Cytotoxicity: NSCLC; type: cell-based; settings: Homo sapiens, NCI-H1993
[13] = tested on: HCC15; experiment: cells; type: cell-based; settings: Homo sapiens
[14] = tested on: normal human, murine or primate cell and tissue types; experiment: MTT / alamar blue cytotoxicity on panel of normal tissues; type: cell-based; settings: read-out: IC50 range
[15] = tested on: HBL2; experiment: Drug combination cytotoxicity with BO-1055; type: cell-based; settings: Homo sapiens, HBL2, 72 h, read-out: IC50 single drug
[16] = tested on: H3255 (EGFR); experiment: cells; type: cell-based; settings: Homo sapiens, NCI-H3255
[17] = tested on: H647 (KRAS); experiment: cells; type: cell-based; settings: Homo sapiens, NCI-H647
[18] = Pharmacokinetics, IV 1 mg/kg or oral 10 mg/kg (LC-MS/MS); type: in vivo, Sprague Dawley rats; settings: rat; for oral absorption / plasma levels: oral 10 mg/kg, LLOQ […], 10 mg/kg
Protocol: A single intravenous dose was administered via an indwelling catheter in the jugular vein to a group of 2 male rats at a dose level of 1.0 mg/kg. The formulations were prepared as a solution in 5.0% w/v DMSO with 10% w/v Cremophor in distilled water. […] The formulations were prepared as a solution in 0.5% w/v CMC in distilled water. Serial blood samples were collected from the jugular vein catheter up to 24 h post-dose from all animals in groups.

[19] = tested on: CL100T1; experiment: cells; type: cell-based; settings: Homo sapiens
[20] = Peripheral blood hematologic parameters in healthy mice; type: in vivo, C57Bl/6 mice; settings: 30 mg/kg i.v. every other day x5
[21] = tested on: MA-10-W51 CB MLL-AF9 + Flt3ITD; experiment: Cytotoxicity: AML HSC-derived; type: cell-based, human; settings: for IC50: Homo sapiens
Source text: (§1) • a) Growth factor-dependent & cell density growth dependent cell lines. Human cord blood CD34+ cells transduced with MLL-AF9 gene: MA-10, MA-18. Human bone marrow CD34+ cells transduced with MLL-AF9 gene: MA-23. Human cord blood CD34+ cells transduced with MLL-AF9 and N-ras genes: MA-9.3, MA-9.6. • b) Growth factor independent leukemic cell lines. Human MA-10 cells transduced with Flt3 ITD (W51) were adapted to in vitro proliferation without growth factors (Moore Laboratory).

[22] = tested on: BEAS2B SV40; experiment: cells; type: cell-based; settings: Homo sapiens, BEAS-2B, 72 h
[23] = tested on: H460; experiment: Cytotoxicity: Large-Cell Lung Cancer; type: cell-based; settings: Homo sapiens, NCI-H460
[24] = tested on: Cord Blood CD34+ cells (no FCS); experiment: Cytotoxicity: CB CD34+ cells (no FCS); type: cell-based; settings: Homo sapiens
[25] = tested on: H1781 (HER2/4); experiment: cells; type: cell-based; settings: Homo sapiens, NCI-H1781
[26] = tested on: IMR90; experiment: 72 hr cytotoxicity: fetal lung myofibroblast; type: cell-based; settings: Homo sapiens, IMR-90, 72 h
[27] = tested on: MA-10 CB + MLL-AF9; experiment: Cytotoxicity: AML HSC-derived; type: cell-based; settings: Homo sapiens
Source text: as §1

[28] = tested on: AML 9.6 MLL-AF9 + NRAS; experiment: Cytotoxicity: AML HSC-derived; type: cell-based; settings: Homo sapiens, AML 9.6 (MA-9.6)
Source text: as §1

[29] = tested on: AML 9.3 MLL-AF9 + NRAS; experiment: Cytotoxicity: AML HSC-derived; type: cell-based; settings: Homo sapiens, AML 9.3 (MA-9.3)
Source text: as §1

[30] = tested on: MA-18 CB + MLL-AF9; experiment: Cytotoxicity: AML HSC-derived; type: cell-based; settings: Homo sapiens
Source text: as §1

[31] = tested on: BCI-NSI hTERT; experiment: 72 hr cytotoxicity: Bronchial epithelium; type: cell-based; settings: Homo sapiens, 72 h
[32] = tested on: DNA; experiment: Alkaline agarose gel shift DNA cross-linking assay; type: biochemical
[33] = tested on: CALU-3; experiment: cells; type: cell-based; settings: Homo sapiens

CN(C)CCNC(=O)c1cccc(NC(=O)Nc2ccc(N(CCCl)CCCl)cc2)c1.Cl [BO-1055, ureidomustine]
IC50 [1]: ≥ 100 µM
IC50 [2]: 240 nM
IC50 [3]: ≥ 10 µM
efficacy vs positive controls [4]: more effective than Irinotecan or etoposide
IC50 [5]: 600 nM
IC50 [6]: 5.53 µM
BASO [7]: 0.06 10^3/μL
MONO [7]: 0.08 10^3/μL
% bound [8]: 99.69%
IC50 [9]: 34.5 µM
IC50 [10]: 30 µM
IC50 [11]: 1700 nM
IC50 [12]: 6.72 µM
IC50 [13]: 6.15 µM
IC50 ([14]; Epithelial cell): 10 to 40 µM
IC50 ([14]; HS-27A): 20 to 35.3 µM
IC50 [14]: 8.8 to 9.48 µM
IC50 [15]: 161 nM
IC50 [16]: 2040 nM
IC50 [17]: ≥ 10 µM
AUC (0-last) ([18]; IV 1 mg/kg, N = 2): 925.81 ng·h/mL
AUC (0-∞) ([18]; IV 1 mg/kg, N = 2): 934.93 ng·h/mL
CLss ([18]; IV 1 mg/kg, N = 2): 18.00 mL/min/kg
Vss ([18]; IV 1 mg/kg, N = 2): 0.15 L/kg
t1/2 ([18]; IV 1 mg/kg, N = 2): 34.8 min
oral absorption / plasma levels [18]: No quantifiable levels
oral absorption / plasma levels ([18]; listed as ureidomustine): No Oral Absorption
IC50 [19]: ≥ 10 µM
suppression of hematologic parameters [20]: no significant suppression in any of the 23/24 hematologic parameters
IC50 ([21]; MA10 W51 growth factor (hGM-CSF or hIL-3) dependent sub-line): 280 to 400 nM
IC50 ([21]; MA10 W51 growth factor independent sub-line): ~10000 nM
IC50 ([21]; MLL-AF9, MA-10-W51): 400 nM
cytotoxicity (in words) ([21]; growth factor dependent MA-10-W51, FIG. 9): highly cytotoxic
IC50 [22]: ≥ 10 µM
IC50 [23]: 6.2 µM
IC50 [24]: 9.01 µM
IC50 [25]: 390 nM
IC50 [26]: 12.9 µM
IC50 [27]: 350 nM
IC50 [28]: 2910 nM
IC50 [29]: 810 nM
IC50 [30]: 400 nM
IC50 [31]: 40 µM
DNA inter-strand cross-linking [32]: able to induce DNA inter-strand cross-linking
IC50 [33]: ≥ 10 µM
